Where “and” joins values, the source holds several entries; their conditions need not be identical. Equal values may be shown once. Inconclusive results and toxic doses are left out. Rule as the data show it: active = T/C of 150% or more; inactive = T/C below 125%.
Tested on: L1210 leukemia ip in BDF1 mice, survival T/C
Assay: NCI In Vivo Anticancer Drug Screen. Data for tumor model L1210 Leukemia (intraperitoneal) in B6D2F1 (BDF1) mice
Settings: endpoint: mean survival time, higher = longer survival
Method in brief: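 Tumor cells were implanted, animals were treated, and survival was followed. The result divides the treated measurement by the vehicle-control measurement.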

[1] = dose: 100.0 mg/kg/injection, schedule: Q01DX009 (ip), vehicle: Klucel (hydroxypropylcellulose) (HPC)
[2] = dose: 200.0 mg/kg/injection, schedule: Q01DX009 (ip), vehicle: Klucel (hydroxypropylcellulose) (HPC)
[3] = dose: 400.0 mg/kg/injection, schedule: Q01DX009 (ip), vehicle: Klucel (hydroxypropylcellulose) (HPC)
[4] = dose: 50.0 mg/kg/injection, schedule: Q01DX001 (ip), vehicle: saline
[5] = dose: 100.0 mg/kg/injection, schedule: Q01DX001 (ip), vehicle: saline
[6] = dose: 200.0 mg/kg/injection, schedule: Q01DX001 (ip), vehicle: saline
[7] = dose: 100.0 mg/kg/injection, schedule: Q04DX003 (ip), vehicle: Klucel (hydroxypropylcellulose) (HPC)
[8] = dose: 200.0 mg/kg/injection, schedule: Q04DX003 (ip), vehicle: Klucel (hydroxypropylcellulose) (HPC)
[9] = dose: 100.0 mg/kg/injection, schedule: Q01DX009 (ip), vehicle: saline with Tween-80
[10] = dose: 100.0 mg/kg/injection, schedule: Q04DX003 (ip), vehicle: saline with Tween-80
[11] = dose: 200.0 mg/kg/injection, schedule: Q01DX009 (ip), vehicle: saline with Tween-80
[12] = dose: 200.0 mg/kg/injection, schedule: Q04DX003 (ip), vehicle: saline with Tween-80
[13] = dose: 400.0 mg/kg/injection, schedule: Q01DX009 (ip), vehicle: saline with Tween-80
[14] = dose: 400.0 mg/kg/injection, schedule: Q04DX003 (ip), vehicle: saline with Tween-80
[15] = dose: 100.0 mg/kg/injection, schedule: Q04DX002 (ip), vehicle: Klucel (hydroxypropylcellulose) (HPC)
[16] = dose: 200.0 mg/kg/injection, schedule: Q04DX002 (ip), vehicle: Klucel (hydroxypropylcellulose) (HPC)
[17] = dose: 400.0 mg/kg/injection, schedule: Q04DX002 (ip), vehicle: Klucel (hydroxypropylcellulose) (HPC)
[18] = dose: 400.0 mg/kg/injection, schedule: Q04DX003 (ip), vehicle: Klucel (hydroxypropylcellulose) (HPC)
[19] = dose: 100.0 mg/kg/injection, schedule: Q01DX001 (ip), vehicle: carboxymethylcellulose (CMC)
[20] = dose: 200.0 mg/kg/injection, schedule: Q01DX001 (ip), vehicle: carboxymethylcellulose (CMC)
[21] = dose: 400.0 mg/kg/injection, schedule: Q01DX001 (ip), vehicle: carboxymethylcellulose (CMC)

Measured: T/C

CC[C@]12CN3CCc4c([nH]c5ccccc45)[C@@](C(=O)OC)(c4cc5c(cc4OC)N(C)[C@H]4[C@@](O)(C(=O)OC)[C@H](OC(C)=O)[C@]6(CC)C=CCN7CC[C@]54[C@@H]76)CC(C3)[C@H]1O2 (stereo not given in full)
inactive: dose: 0.37 mg/kg/injection, schedule: Q01DX009 (ip), vehicle: saline 108 % of control | dose: 0.75 mg/kg/injection, schedule: Q01DX009 (ip), vehicle: Klucel (hydroxypropylcellulose) (HPC) 100 % of control | dose: 1.5 mg/kg/injection, schedule: Q01DX002 (ip), vehicle: saline 108 % of control | dose: 1.5 mg/kg/injection, schedule: Q01DX009 (ip), vehicle: Klucel (hydroxypropylcellulose) (HPC) 105 % of control | dose: 1.5 mg/kg/injection, schedule: Q01DX009 (ip), vehicle: saline 97 % of control and 108 % of control and 114 % of control | dose: 3.0 mg/kg/injection, schedule: Q01DX002 (ip), vehicle: saline 115 % of control | dose: 3.0 mg/kg/injection, schedule: Q01DX009 (ip), vehicle: Klucel (hydroxypropylcellulose) (HPC) 110 % of control | dose: 6.0 mg/kg/injection, schedule: Q01DX002 (ip), vehicle: saline 117 % of control | dose: 6.0 mg/kg/injection, schedule: Q01DX009 (ip), vehicle: Klucel (hydroxypropylcellulose) (HPC) 107 % of control | dose: 12.0 mg/kg/injection, schedule: Q01DX009 (ip), vehicle: Klucel (hydroxypropylcellulose) (HPC) 115 % of control | dose: 12.0 mg/kg/injection, schedule: Q01DX009 (ip), vehicle: saline 95 % of control | dose: 16.5 mg/kg/injection, schedule: Q04DX003 (ip), vehicle: saline with Tween-80 106 % of control | dose: 37.5 mg/kg/injection, schedule: Q04DX003 (ip), vehicle: saline 94 % of control

COc1ccc(OC)c(NC(=O)Oc2ccc(NC(C)=O)cc2)c1
inactive: [1] 104 % of control | [2] 102 % of control | [3] 96 % of control

O=C(O)C(c1ccccc1)(c1ccccc1)c1ccccc1
inactive: [4] 101 % of control | [5] 106 % of control | [6] 103 % of control

Nc1cc(S(=O)O)c2cccnc2c1O
inactive: dose: 75.0 mg/kg/injection, schedule: Q01DX009 (ip), vehicle: Klucel (hydroxypropylcellulose) (HPC) 88 % of control | [7] 97 % of control | dose: 150.0 mg/kg/injection, schedule: Q01DX009 (ip), vehicle: Klucel (hydroxypropylcellulose) (HPC) 108 % of control | [8] 95 % of control | dose: 300.0 mg/kg/injection, schedule: Q01DX009 (ip), vehicle: Klucel (hydroxypropylcellulose) (HPC) 93 % of control

CCC(c1ccc(Cl)cc1)N1CCC2(CC1)C(=O)NCN2c1ccccc1 (stereo not given)
inactive: [9] 94 % of control | [10] 102 % of control | [11] 96 % of control | [12] 104 % of control | [13] 89 % of control | [14] 91 % of control

CC(=O)c1ccc[n+](Cc2ccc([N+](=O)[O-])cc2)c1
inactive: dose: 100.0 mg/kg/injection, schedule: Q04DX003 (ip), vehicle: saline sonified 98 % of control

O=C1NC(=S)SC1N=Nc1ccc(S(=O)(=O)Nc2ncccn2)cc1 (stereo not given)
inactive: dose: 75.0 mg/kg/injection, schedule: Q01DX001 (ip), vehicle: saline 104 % of control | dose: 150.0 mg/kg/injection, schedule: Q01DX001 (ip), vehicle: saline 102 % of control | dose: 300.0 mg/kg/injection, schedule: Q01DX001 (ip), vehicle: saline 100 % of control

COc1cc(/C=N/NC(=O)CCCCCCCCC(=O)N/N=C/c2ccc(O)c(OC)c2)ccc1O
inactive: dose: 50.0 mg/kg/injection, schedule: Q01DX009 (ip), vehicle: saline with Tween-80 95 % of control and 97 % of control | dose: 100.0 mg/kg/injection, schedule: Q01DX001 (ip), vehicle: saline with Tween-80 92 % of control | [9] 93 % of control and 91 % of control | dose: 100.0 mg/kg/injection, schedule: Q04DX002 (ip), vehicle: saline with Tween-80 101 % of control | [10] 87 % of control | dose: 200.0 mg/kg/injection, schedule: Q01DX001 (ip), vehicle: saline with Tween-80 95 % of control | [11] 94 % of control and 100 % of control | dose: 200.0 mg/kg/injection, schedule: Q04DX002 (ip), vehicle: saline with Tween-80 93 % of control and 103 % of control | [12] 97 % of control | dose: 400.0 mg/kg/injection, schedule: Q01DX001 (ip), vehicle: saline with Tween-80 92 % of control | dose: 400.0 mg/kg/injection, schedule: Q04DX002 (ip), vehicle: saline with Tween-80 90 % of control | [14] 101 % of control

CCOc1ccc(N=Nc2ccc(N)cc2N)cc1
inactive: [15] 96 % of control | [16] 101 % of control | [17] 96 % of control

CC(=O)NCC(S)c1ccc(Cl)cc1 (stereo not given)
inactive: [9] 103 % of control | [10] 112 % of control | [11] 103 % of control | [12] 93 % of control | [13] 103 % of control | [14] 88 % of control

O=C(O)CNc1ccccc1C(=O)O
inactive: [1] 105 % of control | [7] 102 % of control | [2] 98 % of control | [8] 97 % of control | [3] 92 % of control | [18] 96 % of control

OC1COC(CCl)OC1C1OC(CCl)OCC1O (stereo not given)
inactive: [15] 96 % of control | [16] 96 % of control | [17] 96 % of control

CCC1NC(C)(C)CC1=C(C)C (stereo not given)
inactive: dose: 3.13 mg/kg/injection, schedule: Q01DX009 (ip), vehicle: saline 101 % of control | dose: 6.25 mg/kg/injection, schedule: Q01DX009 (ip), vehicle: saline 96 % of control | dose: 12.5 mg/kg/injection, schedule: Q01DX009 (ip), vehicle: saline 96 % of control

Nc1c(I)cc2c(c1I)Cc1cc([N+](=O)[O-])ccc1-2
inactive: [19] 106 % of control | [20] 103 % of control | [21] 103 % of control

O=C(c1ccc([N+](=O)[O-])cc1)C(Br)C(Br)c1ccncc1 (stereo not given)
inactive: [1] 89 % of control | [2] 89 % of control | [3] 93 % of control

O=[N+]([O-])c1cccc(S/N=C/c2ccccc2)c1
inactive: [7] 100 % of control | [8] 95 % of control | [18] 105 % of control

N=c1ccn(C(=O)C2=Cc3cc(Cl)ccc3OC2)cc1
inactive: [9] 92 % of control | [11] 102 % of control

OCCC1CC1=C1CC1 (stereo not given)
inactive: dose: 50.0 mg/kg/injection, schedule: Q01DX009 (ip), vehicle: Klucel (hydroxypropylcellulose) (HPC) 101 % of control | [1] 98 % of control

O=C(NC/C=C/Br)NC1CCCc2ccccc21 (stereo not given)
inactive: dose: 100.0 mg/kg/injection, schedule: Q01DX009 (ip), vehicle: other 106 % of control | dose: 200.0 mg/kg/injection, schedule: Q01DX009 (ip), vehicle: other 110 % of control | dose: 400.0 mg/kg/injection, schedule: Q01DX009 (ip), vehicle: other 100 % of control

Cc1cc([NH-])c([NH-])cc1C.[Cl][Pt+2][Cl]
inactive: dose: 25.0 mg/kg/injection, schedule: Q01DX009 (ip), vehicle: other 119 % of control | dose: 50.0 mg/kg/injection, schedule: Q04DX003 (ip), vehicle: other 104 % of control | dose: 50.0 mg/kg/injection, schedule: Q04DX003 (ip), vehicle: saline 112 % of control and 119 % of control | dose: 100.0 mg/kg/injection, schedule: Q04DX003 (ip), vehicle: other 119 % of control | dose: 100.0 mg/kg/injection, schedule: Q04DX003 (ip), vehicle: saline 107 % of control and 113 % of control | dose: 200.0 mg/kg/injection, schedule: Q04DX003 (ip), vehicle: saline 93 % of control
active: dose: 18.0 mg/kg/injection, schedule: Q01DX009 (ip), vehicle: water 150 % of control

C/C(=N\O)C1(C)CC=CCC1CO (stereo not given)
inactive: [10] 101 % of control | [12] 101 % of control | [14] 96 % of control

OCC(Cc1ccc(Cl)cc1)N1CCCCC1 (stereo not given)
inactive: [19] 96 % of control | [20] 100 % of control | [21] 89 % of control

N#CC(c1ccccc1)C(O)(c1ccccc1)c1ccccc1 (stereo not given)
inactive: [4] 98 % of control | [5] 98 % of control | [6] 93 % of control | dose: 400.0 mg/kg/injection, schedule: Q01DX001 (ip), vehicle: saline 91 % of control

Source: PubChem BioAssay AID248 (DTP/NCI, 2004)
